Results reported in patent publication US6953800B2, “Use of selective antagonists of the α1B-adrenergic receptor for improvement of sexual dysfunction” (Recordati S.A. Chemical, priority 1999, dated 2005).
“And” between values parts separate entries of the source, which are not always exact repeats. Identical values can stand only once.

Legend:
anaesthetised rats = test: Intracavernous and blood pressure recording in rats; type: in vivo, rat
Procedure: Rats were anaesthetised by an intraperitoneal injection of urethane (1.5 g/kg in sterile saline) and placed on an homeothermic blanket. Their temperature was maintained at 37° C. Rats were tracheotomized to facilitate spontaneous breathing and to prevent aspiration of saliva. A catheter filled with heparinized saline (25 IU/ml) was placed into the carotid to record mean blood pressure (BP, mmHg). The penis was desheathed and the corpora cavernosa were exposed. A 25-gauge stainless-steel needle was inserted into one corpus cavernosum to record intracavernous pressure (ICP in mmHg). […] Pressure catheters were connected to pressure transducers (Model 750, Elcomatic Ltd, Glasgow, UK).
Following a resting period of 10 minutes, the compound solvent was delivered intracavernously (50 μl/injection). Then, increasing doses of one compound were injected every ten minutes by the same route. Five injections (one solvent plus four cumulative doses) were performed in each rat, and five rats were used for the study of one compound. For each injection and for each compound, mean BP averaged over the ten minutes following the injection was measured. The maximal ICP value reached during the ten-minute period following an injection was also recorded. In these experiments, all the compounds tested were dissolved and diluted in propylene glycol-Sorensen solvent.

hamster α1b-adrenoceptor = target: T1, hamster α1b-adrenoceptor (Mesocricetus auratus, UniProt P18841); test: [3H]Prazosin binding, hamster α1b-adrenoceptor in COS-7 cell membranes; conditions: COS-7 membranes, read-out: Affinity (Ki) α1b, animal cloned receptors
T1 construct: expressed in transfected cells; host or cells: COS-7 cells (transient), membranes
T1 sequence (P18841 1-515): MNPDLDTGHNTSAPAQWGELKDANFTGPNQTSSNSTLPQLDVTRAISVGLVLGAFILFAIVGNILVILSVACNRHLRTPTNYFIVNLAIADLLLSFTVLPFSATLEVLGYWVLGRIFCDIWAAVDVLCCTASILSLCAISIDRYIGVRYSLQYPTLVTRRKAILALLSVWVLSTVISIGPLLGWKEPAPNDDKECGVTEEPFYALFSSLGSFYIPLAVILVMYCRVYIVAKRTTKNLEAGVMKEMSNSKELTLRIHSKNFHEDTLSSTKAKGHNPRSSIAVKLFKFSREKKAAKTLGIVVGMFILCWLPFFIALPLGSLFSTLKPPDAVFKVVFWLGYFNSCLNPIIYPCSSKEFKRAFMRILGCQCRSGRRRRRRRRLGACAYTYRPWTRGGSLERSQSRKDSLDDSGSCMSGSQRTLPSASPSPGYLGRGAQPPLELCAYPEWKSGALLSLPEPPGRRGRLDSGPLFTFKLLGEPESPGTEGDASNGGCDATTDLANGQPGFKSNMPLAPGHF
Procedure: (§1) The incubation was stopped by addition of ice-cold Tris buffer and rapid filtration through 0.2% polyethyleneimine pretreated Whatman GF/B or Schleicher & Schuell GF52 filters.
(§2) Data are expressed as mean Ki. All patents and other references cited herein are incorporated by reference in their entirety.

rat α1d-adrenoceptor = target: T2, rat α1d-adrenoceptor (Rattus norvegicus, UniProt P23944); test: [3H]Prazosin binding, rat α1d-adrenoceptor in COS-7 cell membranes; conditions: COS-7 membranes, read-out: Affinity (Ki) α1d, animal cloned receptors
T2 construct: expressed in transfected cells; host or cells: COS-7 cells (transient), membranes
T2 sequence (P23944 1-561): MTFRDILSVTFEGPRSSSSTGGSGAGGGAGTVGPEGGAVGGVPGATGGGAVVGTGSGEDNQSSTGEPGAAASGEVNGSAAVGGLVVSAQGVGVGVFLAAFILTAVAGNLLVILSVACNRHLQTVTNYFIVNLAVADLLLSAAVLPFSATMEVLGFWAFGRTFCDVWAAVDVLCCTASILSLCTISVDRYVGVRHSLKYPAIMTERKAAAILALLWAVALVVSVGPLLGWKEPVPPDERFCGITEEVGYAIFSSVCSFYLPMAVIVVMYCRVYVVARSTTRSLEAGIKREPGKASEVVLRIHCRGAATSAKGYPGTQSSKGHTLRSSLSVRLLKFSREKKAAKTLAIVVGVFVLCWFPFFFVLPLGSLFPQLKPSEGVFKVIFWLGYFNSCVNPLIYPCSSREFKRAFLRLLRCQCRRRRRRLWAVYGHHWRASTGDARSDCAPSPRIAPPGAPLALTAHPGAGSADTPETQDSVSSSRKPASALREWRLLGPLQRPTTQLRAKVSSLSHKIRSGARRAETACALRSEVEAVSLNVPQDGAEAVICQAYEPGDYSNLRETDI
Procedure: as §1, §2

bovine α1a-adrenoceptor = target: T3, bovine α1a-adrenoceptor (Bos taurus, UniProt P18130); test: [3H]Prazosin binding, bovine α1a-adrenoceptor in COS-7 cell membranes; conditions: bovine α1a, COS-7 membranes; read-out: Affinity (Ki) α1a, animal cloned receptors
T3 construct: expressed in transfected cells; host or cells: COS-7 cells (transient), membranes
T3 sequence (P18130 1-466): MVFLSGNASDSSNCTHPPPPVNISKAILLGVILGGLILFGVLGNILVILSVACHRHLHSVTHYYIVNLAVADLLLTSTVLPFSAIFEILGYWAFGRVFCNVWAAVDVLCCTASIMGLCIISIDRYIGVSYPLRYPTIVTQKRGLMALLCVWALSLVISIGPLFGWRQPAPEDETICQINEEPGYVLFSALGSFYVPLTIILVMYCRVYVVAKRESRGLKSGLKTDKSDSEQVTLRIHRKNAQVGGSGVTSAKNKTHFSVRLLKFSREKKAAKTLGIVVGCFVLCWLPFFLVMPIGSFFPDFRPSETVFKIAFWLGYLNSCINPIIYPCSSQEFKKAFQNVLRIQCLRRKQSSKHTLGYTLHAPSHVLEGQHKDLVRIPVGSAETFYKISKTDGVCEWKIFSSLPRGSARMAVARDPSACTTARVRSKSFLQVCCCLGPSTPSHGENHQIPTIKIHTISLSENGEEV
Procedure: as §1, §2

anaesthetised dogs = test: Intracavernous and blood pressure recording in dogs
Procedure: Male beagle dogs were anaesthetised with pentobarbital sodium (i.v. Nembutal, 35 mg/kg for induction and 4 mg/kg/h for maintenance) and intubated with an endotracheal cuffed tube to facilitate free ventilation. A collateral of the left femoral vein was cannulated with a PE catheter for infusion of the anaesthetic. Systemic BP was monitored via a Mikro-tip 6F (Millar Instruments) pressure transducer introduced into the aortic arch through the right common carotid artery. ICP was measured by means of a 20-gauge needle placed into the left or right corpus cavernosum and the same needle was used for intracavernous injection of the drugs. The needle was attached to a catheter filled with heparinized saline (25 IU/mL). […] The compounds to be tested were injected intracavernously in a volume of 0.5 ml and, after each injection, the needle was flushed with 0.5 ml of saline. The vehicles for compound dissolution were tested before the first dose of each drug. The compounds were administered in a cumulative way, with a 30-minute interval between doses. ICP (mmHg) was measured at the peak effect after the administration of the compounds. The duration of tumescence (DT, min) was measured from the beginning of the rise of ICP over its basal value up to the return to baseline. The systolic blood pressure and diastolic blood pressure (mmHg) were measured at the peak effect after the administration of compounds, in order to evaluate the effects of the compounds on BP independently from the effects on ICP. Moreover, the systolic blood pressure was measured at the time of maximal ICP value after intracavernous injection, to evaluate the ICP/BP ratios. […] The data were reported as mean ±s.e. of the mean, or percent variation (±s.e.) of the basal values.

How did the BP (anaesthetised rats; 10 μg/kg intracavernous) turn out when `COc1cc2nc(N3CCN(C(=O)COc4c(OC)cccc4C(C)C)CC3)nc(N)c2cc1OC.Cl` [Compound A, 4-Amino-6,7-dimethoxy-2-[4-[(2-isopropyl-6-methoxyphenoxy)acetyl]-1-piperazinyl]quinazoline hydrochloride] was run?
The BP was 91.3 ± 9.4 mmHg.

And the ICP (anaesthetised rats; 10 μg/kg intracavernous)?
The ICP was 36.8 ± 8.7 mmHg.

And the BP (anaesthetised rats; 30 μg/kg intracavernous)?
The BP was 82.7 ± 11.0 mmHg.

And the ICP (anaesthetised rats; 30 μg/kg intracavernous)?
Its ICP is 37.6 ± 10.1 mmHg.

And the BP (anaesthetised rats; 100 μg/kg intracavernous)?
Its BP is 74.8 ± 9.3 mmHg.

What about the ICP (anaesthetised rats; 100 μg/kg intracavernous) of the same molecule?
Its ICP is 38.7 ± 12.3 mmHg.

And the BP (anaesthetised rats; 300 μg/kg intracavernous)?
Its BP is 72.5 ± 5.6 mmHg.

And the ICP (anaesthetised rats; 300 μg/kg intracavernous, hydrochloride)?
Its ICP is 50.6 mmHg and 50.6 ± 13.7 mmHg.

And the “effect on ICP (in words)” value (anaesthetised rats; intracavernous injection)?
Its value is “dose-dependently increased ICP”.

And the “decrease of blood pressure accompanying the ICP/BP increase (FIG. 1)” value (anaesthetised rats; intracavernous, 10-300 μg)?
The value was no more than 20%.

What about the “decrease of BP” value (anaesthetised rats; intracavernous, over the dose range up to 300 μg/kg) of the same molecule?
The value was “about 30%”.

And the Ki (hamster α1b-adrenoceptor)?
Its Ki is 0.45 nM.

What about the Ki (rat α1d-adrenoceptor) of the same molecule?
Its Ki is 10.3 nM.

What about the Ki (bovine α1a-adrenoceptor) of the same molecule?
The Ki was 7.5 nM.

And the DBP (anaesthetised dogs; 3 μg/kg intracavernous)?
Its DBP is 116.0 ± 5.9 mmHg.

And the “DT (duration of tumescence)” value (anaesthetised dogs; 3 μg/kg intracavernous)?
The value was 1.2 ± 0.2 min.

And the ICP (anaesthetised dogs; 3 μg/kg intracavernous)?
The ICP was 26.7 ± 8.7 mmHg.

What about the SBP (anaesthetised dogs; 3 μg/kg intracavernous) of the same molecule?
The SBP was 155.3 ± 5.5 mmHg.

What about the “SBPICP (SBP at the time of maximal ICP value)” value (“SBPICP” for short) (anaesthetised dogs; 3 μg/kg intracavernous) of the same molecule?
The value was 156.7 ± 6.8 mmHg.

And the “increase of ICP in comparison with basal ICP values” (anaesthetised dogs; 3 μg/kg intracavernous)?
The value was 12 mmHg.

What about the DBP (anaesthetised dogs; 10 μg/kg intracavernous) of the same molecule?
Its DBP is 120.0 ± 5.9 mmHg.

And the “DT (duration of tumescence)” value (anaesthetised dogs; 10 μg/kg intracavernous)?
Its value is 15.0 ± 8.4 min.

And the ICP (anaesthetised dogs; 10 μg/kg intracavernous)?
Its ICP is 75.0 ± 32.4 mmHg.

And the SBP (anaesthetised dogs; 10 μg/kg intracavernous)?
Its SBP is 157.5 ± 6.6 mmHg.

And the “SBPICP” value (anaesthetised dogs; 10 μg/kg intracavernous)?
The value was 158.5 ± 7.4 mmHg.

What about the DBP (anaesthetised dogs; 30 μg/kg intracavernous) of the same molecule?
The DBP was 117.5 ± 6.5 mmHg.

What about the “DT (duration of tumescence)” value (anaesthetised dogs; 30 μg/kg intracavernous) of the same molecule?
The value was 8.3 ± 3.2 min.

And the ICP (anaesthetised dogs; 30 μg/kg intracavernous)?
Its ICP is 91.5 ± 26.9 mmHg.

What about the SBP (anaesthetised dogs; 30 μg/kg intracavernous) of the same molecule?
The SBP was 154.0 ± 6.6 mmHg.

What about the “SBPICP” value (anaesthetised dogs; 30 μg/kg intracavernous) of the same molecule?
Its value is 156.5 ± 5.9 mmHg.

And the DBP (anaesthetised dogs; 100 μg/kg intracavernous)?
Its DBP is 113.0 ± 7.3 mmHg.

What about the “DT (duration of tumescence)” value (anaesthetised dogs; 100 μg/kg intracavernous) of the same molecule?
Its value is 13.7 ± 5.6 min.

And the ICP (anaesthetised dogs; 100 μg/kg intracavernous)?
Its ICP is 95.0 ± 23.3 mmHg.

What about the SBP (anaesthetised dogs; 100 μg/kg intracavernous) of the same molecule?
The SBP was 147.5 ± 7.6 mmHg.

What about the “SBPICP” value (anaesthetised dogs; 100 μg/kg intracavernous) of the same molecule?
The value was 148.5 ± 6.0 mmHg.

What about the DBP (anaesthetised dogs; 300 μg/kg intracavernous) of the same molecule?
The DBP was 107.5 ± 7.4 mmHg.

What about the ICP (anaesthetised dogs; 300 μg/kg intracavernous) of the same molecule?
The ICP was 111.0 ± 10.9 mmHg.

What about the SBP (anaesthetised dogs; 300 μg/kg intracavernous) of the same molecule?
The SBP was 140.0 ± 7.4 mmHg.

And the “SBPICP” value (anaesthetised dogs; 300 μg/kg intracavernous)?
Its value is 142.0 ± 6.5 mmHg.

What about the “increase of ICP in comparison with basal ICP values” (anaesthetised dogs; 300 μg/kg intracavernous) of the same molecule?
The value was 96.5 mmHg.

What about the “duration of action compared with reference compounds” value (anaesthetised dogs; Compound B at the highest dose tested) of the same molecule?
Its value is “higher than that of the reference compounds tested”.

What about the “hypotension computed on diastolic blood pressure (change)” value (anaesthetised dogs; dose-dependent over 3-300 μg/kg) of the same molecule?
Its value is −10 to −19 mmHg.

And the “decrease of blood pressure accompanying the ICP/BP increase (FIG. 2)” value (anaesthetised dogs; intracavernous)?
The value was no more than 20%.

What about the “effect on ICP (in words)” value (anaesthetised dogs; intracavernous injection) of the same molecule?
Its value is “dose-dependently increased ICP”.
